Reference: ChEMBL document CHEMBL4359837, “Discovery of 2-(4-Chloro-3-(trifluoromethyl)phenyl)-N-(4-((6,7-dimethoxyquinolin-4-yl)oxy)phenyl)acetamide (CHMFL-KIT-64) as a Novel Orally Available Potent Inhibitor against Broad-Spectrum Mutants of c-KIT Kinase for Gastrointestinal Stromal Tumors” (J Med Chem, 2019)
The source made the active and inactive calls. The rule behind the calls is not given here.

Legend:
[1] = Growth inhibition of mouse BAF3 cells measured after 72 hrs by CCK8 assay; format: cell-based
[2] = biological target: Mast/stem cell growth factor receptor Kit (Mus musculus) (UniProt P05532); test: Inhibition of c-KIT in mouse BAF3(transformed) cells assessed as growth inhibition after 72 hrs by CCK8 assay
[3] = test system: Mast/stem cell growth factor receptor Kit (Homo sapiens), P10721 [T670I]; settings: Mus musculus
Description: Inhibition of c-KIT T670I mutant in mouse BAF3(transformed) cells assessed as growth inhibition after 72 hrs by CCK8 assay

[4] = biological target: T1, Platelet-derived growth factor receptor alpha (Homo sapiens, UniProt P16234); format: cell-based; settings: GISTT1
[5] = biological target: T1, Platelet-derived growth factor receptor alpha; format: cell-based; settings: GISTT1; remark: listed apart in the source
[6] = biological target: T1, Platelet-derived growth factor receptor alpha; format: cell-based; settings: GISTT1; remark: listed apart in the source
[7] = biological target: T1, Platelet-derived growth factor receptor alpha; format: cell-based; settings: GISTT1; remark: listed apart in the source
[8] = biological target: T1, Platelet-derived growth factor receptor alpha; format: cell-based; settings: GISTT1; remark: listed apart in the source
[9] = biological target: T1, Platelet-derived growth factor receptor alpha; format: cell-based; settings: GISTT1; remark: listed apart in the source
[10] = biological target: T1, Platelet-derived growth factor receptor alpha; format: cell-based; settings: GISTT1; remark: listed apart in the source
GISTT1 [11] = format: functional, cell-based; settings: Homo sapiens
Mus musculus [12] = species: Mus musculus; test: Inhibition of c-KIT V654A/V559D double mutant in mouse BAF3(transformed) cells assessed as growth inhibition after 72 hrs by CCK8 assay
Mus musculus [13] = species: Mus musculus; test: Inhibition of c-KIT T670E mutant in mouse BAF3(transformed) cells assessed as growth inhibition after 72 hrs by CCK8 assay
Mus musculus [14] = species: Mus musculus; test: Inhibition of c-KIT T670I/V559D double mutant in mouse BAF3(transformed) cells assessed as growth inhibition after 72 hrs by CCK8 assay
Mus musculus [15] = species: Mus musculus; test: Inhibition of c-KIT S709F mutant in mouse BAF3(transformed) cells assessed as growth inhibition after 72 hrs by CCK8 assay
Mus musculus [16] = species: Mus musculus; test: Inhibition of c-KIT D816E mutant in mouse BAF3(transformed) cells assessed as growth inhibition after 72 hrs by CCK8 assay
Mus musculus [17] = species: Mus musculus; test: Inhibition of c-KIT D820G mutant in mouse BAF3(transformed) cells assessed as growth inhibition after 72 hrs by CCK8 assay
[18] = Growth inhibition of human GIST48B cells after 72 hrs by CCK8 assay; format: functional
GISTT1 [19] = format: functional, Homo sapiens; settings: Mus musculus, GISTT1, po, 672 h; read-out: TGI
GISTT1 [20] = format: functional, Homo sapiens
[21] = test system: Mast/stem cell growth factor receptor Kit (Homo sapiens), P10721 [V559A]; settings: Mus musculus
Description: Inhibition of c-KIT V559A mutant in mouse BAF3(transformed) cells assessed as growth inhibition after 72 hrs by CCK8 assay

[22] = test system: Mast/stem cell growth factor receptor Kit (Homo sapiens), P10721 [V559G]; settings: Mus musculus
Description: Inhibition of c-KIT V559G mutant in mouse BAF3(transformed) cells assessed as growth inhibition after 72 hrs by CCK8 assay

[23] = test system: Mast/stem cell growth factor receptor Kit (Homo sapiens), P10721 [D820Y]; settings: Mus musculus
Description: Inhibition of c-KIT D820Y mutant in mouse BAF3(transformed) cells assessed as growth inhibition after 72 hrs by CCK8 assay

[24] = test system: Mast/stem cell growth factor receptor Kit (Homo sapiens), P10721 [Y823D]; settings: Mus musculus
Description: Inhibition of c-KIT Y823D mutant in mouse BAF3(transformed) cells assessed as growth inhibition after 72 hrs by CCK8 assay

[25] = test system: Mast/stem cell growth factor receptor Kit (Homo sapiens), P10721 [UNDEFINED MUTATION]; settings: GISTT1
Description: Inhibition of c-KIT 560 to 578 deletion mutant in human GISTT1 cells assessed as growth inhibition after 72 hrs by CCK8 assay

[26] = test system: Mast/stem cell growth factor receptor Kit (Homo sapiens), P10721 [K642E]
Sequence of Mast/stem cell growth factor receptor Kit (Homo sapiens), P10721 [K642E] (P10721 whole entry K642E): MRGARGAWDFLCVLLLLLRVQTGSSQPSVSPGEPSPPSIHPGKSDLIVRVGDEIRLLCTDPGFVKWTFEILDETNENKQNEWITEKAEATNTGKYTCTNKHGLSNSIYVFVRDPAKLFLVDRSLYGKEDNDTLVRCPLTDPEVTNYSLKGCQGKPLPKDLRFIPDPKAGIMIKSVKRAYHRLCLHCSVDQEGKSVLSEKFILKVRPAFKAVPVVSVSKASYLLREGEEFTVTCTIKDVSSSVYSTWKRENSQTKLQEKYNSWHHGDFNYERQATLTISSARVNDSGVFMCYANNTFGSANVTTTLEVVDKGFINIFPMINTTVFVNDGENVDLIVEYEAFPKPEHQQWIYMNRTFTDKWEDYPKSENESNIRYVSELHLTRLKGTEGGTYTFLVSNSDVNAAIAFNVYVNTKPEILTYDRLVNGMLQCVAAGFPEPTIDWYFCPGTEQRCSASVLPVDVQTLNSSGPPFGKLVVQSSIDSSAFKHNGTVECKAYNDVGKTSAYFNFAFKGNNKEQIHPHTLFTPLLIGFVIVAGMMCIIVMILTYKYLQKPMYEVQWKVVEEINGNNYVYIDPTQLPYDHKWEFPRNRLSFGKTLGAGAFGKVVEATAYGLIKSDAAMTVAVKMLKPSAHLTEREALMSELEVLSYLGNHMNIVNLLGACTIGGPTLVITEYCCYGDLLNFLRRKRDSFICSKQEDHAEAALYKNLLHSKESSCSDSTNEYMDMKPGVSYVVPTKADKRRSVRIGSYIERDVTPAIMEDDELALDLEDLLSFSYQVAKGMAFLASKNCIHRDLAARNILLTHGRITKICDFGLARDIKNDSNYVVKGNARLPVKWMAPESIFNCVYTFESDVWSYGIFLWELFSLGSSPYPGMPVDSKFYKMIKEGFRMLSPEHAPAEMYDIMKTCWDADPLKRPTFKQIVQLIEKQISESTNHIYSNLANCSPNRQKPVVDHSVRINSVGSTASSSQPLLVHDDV

T1 sequence (P16234 whole entry): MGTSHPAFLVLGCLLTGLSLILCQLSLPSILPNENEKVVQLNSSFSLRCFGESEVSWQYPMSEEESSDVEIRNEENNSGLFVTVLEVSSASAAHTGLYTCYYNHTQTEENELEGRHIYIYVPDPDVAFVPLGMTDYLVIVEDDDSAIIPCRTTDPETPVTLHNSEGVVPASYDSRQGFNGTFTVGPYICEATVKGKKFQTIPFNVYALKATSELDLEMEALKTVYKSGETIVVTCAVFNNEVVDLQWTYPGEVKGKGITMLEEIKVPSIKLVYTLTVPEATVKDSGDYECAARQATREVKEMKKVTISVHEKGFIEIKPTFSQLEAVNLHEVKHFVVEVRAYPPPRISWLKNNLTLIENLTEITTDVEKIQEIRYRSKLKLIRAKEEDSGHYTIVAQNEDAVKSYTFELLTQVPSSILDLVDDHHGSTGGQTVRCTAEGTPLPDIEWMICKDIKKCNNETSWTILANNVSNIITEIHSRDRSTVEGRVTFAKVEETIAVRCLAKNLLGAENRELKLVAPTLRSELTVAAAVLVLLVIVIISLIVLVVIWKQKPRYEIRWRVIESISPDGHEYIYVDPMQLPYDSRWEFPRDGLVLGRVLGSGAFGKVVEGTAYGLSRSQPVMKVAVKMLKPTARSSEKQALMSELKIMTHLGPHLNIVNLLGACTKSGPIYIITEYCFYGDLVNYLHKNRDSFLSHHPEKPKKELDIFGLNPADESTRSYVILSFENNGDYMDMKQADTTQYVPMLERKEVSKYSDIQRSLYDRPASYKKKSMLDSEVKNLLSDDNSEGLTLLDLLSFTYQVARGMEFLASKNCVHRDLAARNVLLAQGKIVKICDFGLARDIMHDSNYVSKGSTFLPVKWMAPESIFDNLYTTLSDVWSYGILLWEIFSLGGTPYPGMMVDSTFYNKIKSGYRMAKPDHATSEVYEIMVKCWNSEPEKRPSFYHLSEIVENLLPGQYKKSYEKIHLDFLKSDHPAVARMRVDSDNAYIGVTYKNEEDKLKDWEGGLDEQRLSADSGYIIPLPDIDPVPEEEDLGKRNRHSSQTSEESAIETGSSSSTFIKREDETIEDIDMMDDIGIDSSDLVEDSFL
Sequence of Mast/stem cell growth factor receptor Kit (Mus musculus) (P05532 whole entry): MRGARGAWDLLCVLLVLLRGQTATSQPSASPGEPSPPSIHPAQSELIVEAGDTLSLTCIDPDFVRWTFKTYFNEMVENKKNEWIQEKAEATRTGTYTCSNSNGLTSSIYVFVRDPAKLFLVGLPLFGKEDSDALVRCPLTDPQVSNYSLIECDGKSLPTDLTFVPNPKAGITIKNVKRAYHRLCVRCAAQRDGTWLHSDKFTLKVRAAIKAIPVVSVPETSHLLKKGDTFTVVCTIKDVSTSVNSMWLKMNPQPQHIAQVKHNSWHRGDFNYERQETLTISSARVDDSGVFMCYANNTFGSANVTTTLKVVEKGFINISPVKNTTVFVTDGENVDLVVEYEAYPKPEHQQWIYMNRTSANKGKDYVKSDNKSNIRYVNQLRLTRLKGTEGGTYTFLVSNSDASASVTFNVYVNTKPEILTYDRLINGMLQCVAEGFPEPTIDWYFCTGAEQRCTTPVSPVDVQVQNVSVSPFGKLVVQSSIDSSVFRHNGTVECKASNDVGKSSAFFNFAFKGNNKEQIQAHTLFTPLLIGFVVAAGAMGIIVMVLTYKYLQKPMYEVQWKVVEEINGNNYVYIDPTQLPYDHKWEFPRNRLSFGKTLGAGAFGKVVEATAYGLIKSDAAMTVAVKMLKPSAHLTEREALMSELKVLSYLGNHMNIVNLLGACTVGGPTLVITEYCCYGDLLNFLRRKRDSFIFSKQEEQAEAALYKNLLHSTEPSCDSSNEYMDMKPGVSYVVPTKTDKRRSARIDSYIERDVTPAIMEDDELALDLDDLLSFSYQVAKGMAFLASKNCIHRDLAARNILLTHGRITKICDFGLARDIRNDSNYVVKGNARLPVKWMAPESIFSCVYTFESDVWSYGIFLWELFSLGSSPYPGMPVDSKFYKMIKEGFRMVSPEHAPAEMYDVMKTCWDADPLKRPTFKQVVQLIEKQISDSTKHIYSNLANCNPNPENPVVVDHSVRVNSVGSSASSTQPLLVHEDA
Sequence of Mast/stem cell growth factor receptor Kit (Homo sapiens), P10721 [T670I] (P10721 whole entry T670I): as the sequence (P10721 whole entry K642E) above, with E642K, T670I counted along it
Sequence of Mast/stem cell growth factor receptor Kit (Homo sapiens), P10721 [V559G] (P10721 whole entry V559G): as the sequence (P10721 whole entry K642E) above, with V559G, E642K counted along it
Sequence of Mast/stem cell growth factor receptor Kit (Homo sapiens), P10721 [D820Y] (P10721 whole entry D820Y): as the sequence (P10721 whole entry K642E) above, with E642K, D820Y counted along it
Sequence of Mast/stem cell growth factor receptor Kit (Homo sapiens), P10721 [UNDEFINED MUTATION] (P10721 whole entry, looked up, stated change not applied): as the sequence (P10721 whole entry K642E) above, with E642K counted along it
Sequence of Mast/stem cell growth factor receptor Kit (Homo sapiens), P10721 [V559A] (P10721 whole entry V559A): as the sequence (P10721 whole entry K642E) above, with V559A, E642K counted along it
Sequence of Mast/stem cell growth factor receptor Kit (Homo sapiens), P10721 [Y823D] (P10721 whole entry Y823D): as the sequence (P10721 whole entry K642E) above, with E642K, Y823D counted along it

SMILES	GI50 [2]	GI50 [3]	GI50 at 72 h [1]	further results
COc1cc2nccc(Oc3ccc(C(=O)NCc4ccc(C(F)(F)F)cc4)cc3)c2cc1OC	2.9 µM	0.668 µM	6.18 µM	–
COc1cc2nccc(Oc3ccc(NC(=O)CC4CCCCC4)cc3)c2cc1OC	0.635 µM	0.362 µM	2.47 µM	–
Cc1ccc(NC(=O)c2ccc(CN(CCN(C)C)C(=O)c3ccccn3)cc2)cc1Nc1nccc(-c2cccnc2)n1	–	–	–	inhibition [4]: Active; inhibition [5]: Active; inhibition [6]: Active; inhibition [7]: Active; inhibition [8]: Active; inhibition [9]: Active; inhibition [10]: Active; Activity (GISTT1 [11]): Active
COc1cc2nccc(Oc3ccc(NC(=O)Cc4ccccc4C(F)(F)F)cc3)c2cc1OC	0.424 µM	0.309 µM	6.7 µM	–
COc1cc2nccc(Oc3ccc(NC(=O)Cc4ccc(Cl)c(C(F)(F)F)c4)cc3OC)c2cc1OC	0.034 µM	1.56 µM	8.48 µM	–
CCC(=O)NCC1CCN(c2ccc(NC(=O)Nc3cccc(Oc4ccnc5cc(OC)c(OC)cc45)c3)cc2C(F)(F)F)CC1	0.057 µM	–	> 10 µM	–
COc1cc2nccc(N(C)c3ccc(NC(=O)Cc4ccc(Cl)c(C(F)(F)F)c4)cc3)c2cc1OC	4.28 µM	8.46 µM	2.67 µM	–
COc1cc2nccc(Oc3ccc(NC(=O)C4(c5ccccc5)CC4)cc3)c2cc1OC	> 10 µM	> 10 µM	> 10 µM	–
COc1cc2nccc(Oc3ccc(NC(=O)Cc4ccc(Cl)c(C(F)(F)F)c4)c(F)c3)c2cc1OC	0.049 µM	0.018 µM	3.21 µM	–
COc1cc2nccc(Oc3ccc(NC(=O)Cc4ccc(Cl)c(C(F)(F)F)c4)cc3Cl)c2cc1OC	0.078 µM	0.056 µM	9.45 µM	–
COc1cc2nccc(Oc3ccc(NC(=O)Cc4ccc(Cl)c(C(F)(F)F)c4)cc3F)c2cc1OC	0.116 µM	0.021 µM	1.99 µM	–
Cc1ccc(NC(=O)c2ccc(CN3CCN(C)CC3)cc2)cc1Nc1nccc(-c2cccnc2)n1 [IMATINIB]	0.35 µM	–	> 10 µM	GI50 (Mus musculus [12]): 0.608 µM; GI50 (Mus musculus [13]): 4.08 µM; GI50 (Mus musculus [14]): > 10 µM; GI50 (Mus musculus [15]): 0.115 µM; GI50 (Mus musculus [16]): 0.174 µM; GI50 (Mus musculus [17]): 0.337 µM; GI50 [18]: > 10 µM; Activity (GISTT1 [11]): Active; inhibition in vivo at 100 mg/kg/day (GISTT1 [19]): 66.4%; Activity (GISTT1 [20]): 1.54 g; GI50 [21]: 0.905 µM; GI50 [22]: 0.008 µM; GI50 [23]: 0.435 µM; GI50 [24]: 5.87 µM; GI50 [25]: 0.015 µM; GI50 [26]: 0.048 µM
COc1cc2nccc(Oc3ccc(NC(=O)Cc4ccc(Cl)c(C(F)(F)F)c4)cc3C)c2cc1OC	0.105 µM	0.009 µM	7.05 µM	–
COc1cc2nccc(Oc3ccc(C(=O)NCc4cccc(C(F)(F)F)c4)cc3)c2cc1OC	2.35 µM	4.61 µM	10 µM	–
COc1cc2nccc(Oc3ccc(NC(=O)CN4CCN(C)CC4)cc3)c2cc1OC	7.33 µM	8.52 µM	8.7 µM	–
COc1cc2nccc(Oc3ccc(NC(=O)Cc4ccc(Cl)c(C(F)(F)F)c4)c(Cl)c3)c2cc1OC	0.081 µM	0.07 µM	8.22 µM	–
COc1cc2nccc(Nc3ccc(NC(=O)Cc4ccc(Cl)c(C(F)(F)F)c4)cc3)c2cc1OC	0.742 µM	0.4 µM	2.21 µM	–
COc1cc2nccc(Oc3ccc(NC(=O)Cc4ccc(Cl)c(C(F)(F)F)c4)cc3C#N)c2cc1OC	0.989 µM	0.21 µM	9.97 µM	–
COc1cc2nccc(Oc3ccc(NC(=O)Cc4ccc(Cl)c(C(F)(F)F)c4)c(C)c3)c2cc1OC	0.061 µM	0.075 µM	4.86 µM	–
COc1cc2nccc(Sc3ccc(NC(=O)Cc4ccc(Cl)c(C(F)(F)F)c4)cc3)c2cc1OC	0.154 µM	0.11 µM	3.09 µM	–
COc1cc2nccc(Oc3ccc(NC(=O)Cc4ccc(Cl)c(C(F)(F)F)c4)cc3C(F)(F)F)c2cc1OC	3 µM	2.84 µM	2.92 µM	–

More lines, main results first:

GI50 [2]	GI50 [3]	SMILES	GI50 at 72 h [1]	further results
0.342 µM	0.037 µM	COc1cc2nccc(Oc3ccc(NC(=O)Cc4ccc(Cl)c(Cl)c4)cc3)c2cc1OC	2.03 µM	–
0.319 µM	0.179 µM	COc1ccc(CC(=O)Nc2ccc(Oc3ccnc4cc(OC)c(OC)cc34)cc2)cc1OC	4.13 µM	–
0.022 µM	0.011 µM	COc1cc2nccc(Oc3ccc(NC(=O)Cc4ccc(C(F)(F)F)cc4)cc3)c2cc1OC	2.16 µM	–
4.71 µM	6.99 µM	COc1cc2nccc(Oc3ccc(NC(=O)Cc4ccncc4)cc3)c2cc1OC	5.13 µM	–
0.024 µM	0.013 µM	COc1cc2nccc(Oc3ccc(NC(=O)Cc4ccc(F)c(C(F)(F)F)c4)cc3)c2cc1OC	1.03 µM	–
0.923 µM	0.342 µM	COc1cc2nccc(Oc3ccc(NC(=O)Cc4cccc(F)c4)cc3)c2cc1OC	1 µM	–
0.02 µM	0.001 µM	COc1cc2nccc(Oc3ccc(NC(=O)Cc4cccc(C(F)(F)F)c4)cc3)c2cc1OC	1.89 µM	–
0.04 µM	0.285 µM	COc1cc2nccc(Oc3ccc(NC(=O)Cc4ccc(F)cc4F)cc3)c2cc1OC	0.704 µM	–
2.78 µM	1.7 µM	COc1cc2nccc(Oc3ccc(NC(=O)Cc4c(F)cccc4F)cc3)c2cc1OC	1.93 µM	–
0.112 µM	0.034 µM	COc1cc2nccc(Oc3ccc(NC(=O)Cc4ccc5ccccc5c4)cc3)c2cc1OC	6.23 µM	–
0.11 µM	0.167 µM	COc1cc2nccc(Oc3ccc(NC(=O)Cc4ccc5c(c4)OCO5)cc3)c2cc1OC	3.1 µM	–
0.293 µM	0.339 µM	COc1cccc(CC(=O)Nc2ccc(Oc3ccnc4cc(OC)c(OC)cc34)cc2)c1	2.78 µM	–
> 10 µM	> 10 µM	COc1cc2nccc(Oc3ccc(NC(=O)Cc4ccccc4)cc3)c2cc1OC	> 10 µM	–
0.312 µM	0.309 µM	COc1cc2nccc(Oc3ccc(NC(=O)Cc4ccc(F)c(F)c4)cc3)c2cc1OC	0.67 µM	–
0.027 µM	0.015 µM	COc1cc2nccc(Oc3ccc(NC(=O)Cc4ccc(C)c(C)c4)cc3)c2cc1OC	6.42 µM	–
0.017 µM	0.014 µM	COc1cc2nccc(Oc3ccc(NC(=O)Cc4ccc(C)c(C(F)(F)F)c4)cc3)c2cc1OC	7.26 µM	–
